Assay results: patent US20250382570A1, “GENERATION AND APPLICATION OF FUNCTIONAL HUMAN ASTROCYTES FROM PLURIPOTENT STEM CELLS” (The Regents of the University of California, priority 2022, published 2025)

Test system: iAstrocytes
Assay: Time-lapse imaging of phagocytosis of pHrodoRed-conjugated myelin by iAstrocytes
Format: cell-based, human
Settings: imaging over 24 h
Procedure: FIGS. 3A-3B: (FIG. 3A) iAstrocytes are compatible for study with microglia co-cultures. Cultured iAstrocytes are subsequently incubated with iPSC-derived microglia (Abud et al., 2017). (FIG. 3B) iAstrocytes are labeled with GFAP and iPSC-derived microglia are labeled with Iba1 (light grey). The differentiation protocols for both microglia and astrocytes are serum-free and thus, make them compatible to study together without the confounds of serum activation of glia. Astrocytes phagocytose pHrodoRed-labeled myelin.
(FIGS. 4A-4C, FIG. 4A: 0 hour; FIG. 4B, 12 hours; and FIG. 4C, 24 hours). Phagocytosis can be visualized by pHrodoRed internalization which is absent at time zero (FIG. 4A). Phagocytosis of pHrodoRed-conjugated myelin is detected in iAstrocytes at 12 h (FIG. 4B), which gradually increases with time (24 h, FIG. 4C). FIG. 4D graphically depicts total red object area (y-axis) versus time in hours (x-axis).

With “TGFβ: Growth factor stated as necessary for quiescent astrocytes; inhibits myelin phagocytosis by iAstrocytes” the “effect on phagocytosis of myelin by iAstrocytes” value was “inhibited”.
